Data reported in patent US20050148570A1, “Novel substituted alkane compounds and uses thereof” (priority 2001, published 2005).
Converted amounts (≈) assume the structure as drawn. Each block holds one compound with its values, some of them ahead of it.

Tests used:
S. aureus = assay: MIC, broth dilution method; format: cell-based; conditions: for MIC: Staphylococcus aureus, read-out: Antibacterial Activity against S. aureus MIC
Protocol: (§1) Antibacterial activity can be determined by several standard methods well known by those skilled in the art, including disc diffusions methods, broth dilution minimal inhibitory concentration (MIC) methods, etc., including the detailed method outlined below. Cultures of bacteria are initially brought up from the freezer by streaking a loopful onto agar plates under the appropriate conditions. For instance stocks are streaked onto chocolate agar and then incubated for 18 hours at 35-37° C. in a 5% CO2 incubator. Five to 10 colonies are picked from the chocolate agar plate for subculture to Brain-Heart Infusion (BHI) broth or Mueller Hinton broth or BHI containing 4% serum and incubated under the appropriate conditions. The ability of the test compound to act as an antimicrobial is determined by the ability to inhibit bacterial, algae, or fungal growth in vitro. The optical density of the culture of organisms in the presence of an active compound is compared to the optical density of the same organism untreated. The activity of the compounds is described as either negative or the lowest concentration inhibiting growth.

C. diphtheriae = assay: MIC, broth dilution method; format: cell-based; conditions: Corynebacterium diphtheriae, read-out: MIC Anti-Bacterial Activity
Protocol: as §1

M. catarrhalis = assay: MIC, broth dilution method; format: cell-based; conditions: Moraxella catarrhalis, read-out: MIC Anti-Bacterial Activity
Protocol: as §1

H. influenzae = assay: MIC, broth dilution method; format: cell-based; conditions: Haemophilus influenzae, read-out: MIC Anti-Bacterial Activity
Protocol: as §1

S. pneumoniae = assay: MIC, broth dilution method; format: cell-based; conditions: Streptococcus pneumoniae, read-out: MIC Anti-Bacterial Activity
Protocol: as §1

E. faecalis = assay: MIC, broth dilution method; format: cell-based; conditions: Enterococcus faecalis, read-out: MIC Anti-Bacterial Activity
Protocol: as §1

S. epidermidis = assay: MIC, broth dilution method; format: cell-based; conditions: Staphylococcus epidermidis, read-out: MIC Anti-Bacterial Activity
Protocol: as §1

S. pyogenes = assay: MIC, broth dilution method; format: cell-based; conditions: Streptococcus pyogenes, read-out: MIC Anti-Bacterial Activity
Protocol: as §1

M. smegimatis = assay: MIC, broth dilution method; format: cell-based; conditions: read-out: MIC Anti-Bacterial Activity
Protocol: as §1

Compound: CCCCCC1c2ccc(O)cc2-c2cc(O)ccc21 [Example 34, 9-Pentyl-9H-fluorene-3,6-diol]
- MIC (S. aureus): 3.1 µg/mL (≈ 11.6 µM)

Compound: Trans-1,1-di-(4-hydroxy-3-methylphenyl)-3-(2,2-dimethylpropyl)-2-methylcyclobutane [Example 15]
- Antibacterial Activity against S. aureus MIC (S. aureus; S. aureus): 0.4 µg/mL

Compound: C=CCc1cc(C2(c3ccc(O)c(CC=C)c3)CC(CCCC)C2)ccc1O [Example 33, 1,1-Di(3-allyl-4-hydroxyphenyl)-3-n-butylcyclobutane]
- MIC (S. aureus): 1.6 µg/mL (≈ 4.25 µM)

Compound: CCCCCC1CC1(c1ccc(O)c(Cl)c1)c1ccc(O)c(Cl)c1 (centres unmarked) [Example 22, 1,1-Di(3-chloro-4-hydroxyphenyl)-2-pentylcyclopropane]
- MIC (S. aureus): 1.6 µg/mL (≈ 4.38 µM)

Compound: CC(C)(C)C1CCC1(c1ccc(O)c(Cl)c1)c1ccc(O)c(Cl)c1 (centres unmarked) [Example 25, 1,1-Di-(3-chloro-4-hydroxyphenyl)-2-(1,1-dimethylethyl)cyclobutane]
- MIC (S. aureus): 0.8 µg/mL (≈ 2.19 µM)
- melting point: 133 to 135 °C

Compound: C[C@H]1[C@H](CC(C)(C)C)CC1(c1ccc(O)cc1)c1ccc(O)cc1 (relative stereo) [Example 13, Trans-1,1-di(4-hydroxyphenyl)-3-(2,2-dimethylpropyl)-2-methylcyclobutane]
- MIC (S. aureus): 3.1 µg/mL (≈ 9.55 µM)

Compound: CCCCCC1CC(c2ccc(O)c(CC)c2)(c2ccc(O)c(CC)c2)C1 [Example 31, 1,1-Di(3-ethyl-4-hydroxyphenyl)-3-n-pentylcyclobutane]
- MIC (S. aureus): 1.6 µg/mL (≈ 4.37 µM)
- melting point: 109 to 111 °C

Compound: CC(C)(C)CC1CC(c2ccc(O)c(Cl)c2)(c2ccc(O)c(Cl)c2)C1 [Example 24, 1,1-Di-(3-chloro-4-hydroxyphenyl)-3-(2,2-dimethylpropyl)cyclobutane]
- MIC (S. aureus): 1.6 µg/mL (≈ 4.22 µM)
- melting point: 131 to 134 °C

Compound: Cc1cc(C2(c3ccc(O)c(C)c3)CC(C(C)(C)C)C2)ccc1O [Example 16, 1,1-Di-(4-hydroxy-3-methylphenyl)-3-(1,1-dimethylethyl)cyclobutane]
- MIC (S. aureus): 0.8 µg/mL (≈ 2.47 µM)

Compound: CCCCC1CC(c2ccc(O)cc2)(c2ccc(O)cc2)C1 [Example 6, 1,1-Bis(4-hydroxyphenyl)-3-n-butyl-cyclobutane]
- MIC (C. diphtheriae): 3 µg/mL (≈ 10.1 µM)
- MIC (M. catarrhalis): 3 µg/mL (≈ 10.1 µM)
- MIC (H. influenzae): 13 µg/mL (≈ 43.9 µM)
- MIC (S. pneumoniae): 6 µg/mL (≈ 20.2 µM)
- MIC (E. faecalis): 3 µg/mL (≈ 10.1 µM)
- MIC (S. epidermidis): 3 µg/mL (≈ 10.1 µM)
- MIC (S. pyogenes): 13 µg/mL (≈ 43.9 µM)
- MIC (S. aureus): 4 µg/mL (≈ 13.5 µM)
- MIC (M. smegimatis): 3 µg/mL (≈ 10.1 µM)

Compound: CCCCCC1CC(c2cc(C)c(O)c(C)c2)(c2cc(C)c(O)c(C)c2)C1 [Example 32, 1,1-Di(3,5-dimethyl-4-hydroxyphenyl)-3-n-pentylcyclobutane]
- MIC (S. aureus): 1.6 µg/mL (≈ 4.37 µM)
- melting point: 115 to 117 °C

Compound: CCCCC1CC(c2ccc(O)c(CC)c2)(c2ccc(O)c(CC)c2)C1 [Example 29, 1,1-Di(3-ethyl-4-hydroxyphenyl)-3-n-butylcyclobutane]
- MIC (S. aureus): 0.8 µg/mL (≈ 2.27 µM)
- melting point: 135 to 138 °C

Compound: Cc1cc(C2(c3cc(C)c(O)c(Cl)c3)C[C@@H](CC(C)(C)C)[C@@H]2C)cc(Cl)c1O (relative stereo) [Example 27, Trans-1,1-di(5-chloro-4-hydroxy-3-methylphenyl)-3-(2,2-dimethylpropyl)-2-methylcyclobutane]
- MIC (S. aureus): 0.8 µg/mL (≈ 1.9 µM)

Compound: CC(C)(C)CC1CC(c2ccc(O)cc2)(c2ccc(O)cc2)C1 [Example 11, 1,1-Di(4-hydroxyphenyl)-3-(2,2-dimethylpropyl)cyclobutane]
- MIC (S. aureus): 12.5 µg/mL (≈ 40.3 µM)
- melting point: 182 to 184 °C

Compound: CCCCC1CC1(c1ccc(O)cc1)c1ccc(O)cc1 (centres unmarked) [Example 18, 1,1-Di(4-hydroxyphenyl)-2-n-butylcyclopropane]
- MIC (S. aureus): 3.1 µg/mL (≈ 11 µM)

The remaining compounds from weak to strong by MIC (S. aureus), led by results:

- MIC (C. diphtheriae): 6 µg/mL (≈ 21.2 µM)
- MIC (M. catarrhalis): 3 µg/mL (≈ 10.6 µM)
- MIC (H. influenzae): 13 µg/mL (≈ 46 µM)
- MIC (S. pneumoniae): 6 µg/mL (≈ 21.2 µM)
- MIC (E. faecalis): 13 µg/mL (≈ 46 µM)
- MIC (S. epidermidis): 6 µg/mL (≈ 21.2 µM)
- MIC (S. pyogenes): 13 µg/mL (≈ 46 µM)
- MIC (S. aureus): 8 µg/mL (≈ 28.3 µM)
- MIC (M. smegimatis): 6 µg/mL (≈ 21.2 µM)
Compound: CCCC1CC(c2ccc(O)cc2)(c2ccc(O)cc2)C1 [Example 3, 1,1-Bis(4-hydroxyphenyl)-3-n-propyl-cyclobutane]

- MIC (S. aureus): 6.2 µg/mL (≈ 20.9 µM)
Compound: CCCCCC1CC1(c1ccc(O)cc1)c1ccc(O)cc1 (centres unmarked) [Example 19, 1,1-Di(4-hydroxyphenyl)-2-n-pentylcyclopropane]

- MIC (S. aureus): 6.2 µg/mL (≈ 20.9 µM)
Compound: CC(C)(C)C1CC(c2ccc(O)cc2)(c2ccc(O)cc2)C1 [Example 17, 1,1-Di-(4-hydroxyphenyl)-3-(1,1-dimethylethyl)cyclobutane]

- MIC (S. aureus): 6.2 µg/mL (≈ 16 µM)
- melting point: 138 to 140 °C
Compound: Cc1cc(C2(c3cc(C)c(O)c(Cl)c3)C[C@@H](CC(C)(C)C)[C@@H]2C)ccc1O (relative stereo) [Example 28, Trans-1-(4-hydroxy-3-methylphenyl)-1-(5-chloro-4-hydroxy-3-methylphenyl)-3-(2,2-dimethylpropyl)-2-methylcyclobutane]

- MIC (S. aureus): 3.1 µg/mL (≈ 8.04 µM)
Compound: CCCCC1CC1(c1ccc(O)c(Cl)c1)c1cc(Cl)c(O)c(Cl)c1 (centres unmarked) [Example 21, 1-(3-Chloro-4-hydroxyphenyl)-1-(4-hydroxy-3,5-dichlorophenyl)-2-n-butylcyclopropane]

- MIC (S. aureus): 3 µg/mL (≈ 9.66 µM)
Compound: CCCCC1CC1(c1ccc(O)c(C)c1)c1ccc(O)c(C)c1 (centres unmarked) [Example 10, 1,1-Bis(4-hydroxy-3-methylphenyl)-2-n-butylcyclopropane]

- MIC (C. diphtheriae): 2 µg/mL (≈ 6.31 µM)
- MIC (M. catarrhalis): 1 µg/mL (≈ 3.16 µM)
- MIC (H. influenzae): 6 µg/mL (≈ 18.9 µM)
- MIC (S. pneumoniae): 3 µg/mL (≈ 9.47 µM)
- MIC (E. faecalis): 3 µg/mL (≈ 9.47 µM)
- MIC (S. epidermidis): 2 µg/mL (≈ 6.31 µM)
- MIC (S. pyogenes): 13 µg/mL (≈ 41 µM)
- MIC (S. aureus): 2 µg/mL (≈ 6.31 µM)
- MIC (M. smegimatis): 2 µg/mL (≈ 6.31 µM)
Compound: CCCC1CC(c2ccc(O)cc2)(c2ccc(O)c(Cl)c2)C1 (centres unmarked) [Example 4, 1-(4-Hydroxyphenyl)-1-(4-hydroxy-3-chloro-phenyl)-3-n-propyl-cyclobutane]

- MIC (S. aureus): 1.6 µg/mL (≈ 4 µM)
Compound: CCCCCC1CC1(c1ccc(O)c(Cl)c1)c1cc(Cl)c(O)c(Cl)c1 (centres unmarked) [Example 23, 1-(3-Chloro-4-hydroxyphenyl)-1-(4-hydroxy-3,5-dichlorophenyl)-2-pentylcyclopropane]

- MIC (S. aureus): 1.6 µg/mL (≈ 4.55 µM)
Compound: CCCCC1CC1(c1ccc(O)c(Cl)c1)c1ccc(O)c(Cl)c1 (centres unmarked) [Example 20, 1,1-Di(3-chloro-4-hydroxyphenyl)-2-n-butylcyclopropane]

- MIC (S. aureus): 1.6 µg/mL (≈ 4.73 µM)
- melting point: 175 to 176 °C
Compound: Cc1cc(C2(c3ccc(O)c(C)c3)CC(CC(C)(C)C)C2)ccc1O [Example 12, 1,1-Di(4-hydroxy-3-methylphenyl)-3-(2,2-dimethylpropyl)cyclobutane]

- MIC (C. diphtheriae): 2 µg/mL (≈ 6.04 µM)
- MIC (M. catarrhalis): 1 µg/mL (≈ 3.02 µM)
- MIC (H. influenzae): 6 µg/mL (≈ 18.1 µM)
- MIC (S. pneumoniae): 3 µg/mL (≈ 9.07 µM)
- MIC (E. faecalis): 2 µg/mL (≈ 6.04 µM)
- MIC (S. epidermidis): 1 µg/mL (≈ 3.02 µM)
- MIC (S. pyogenes): 6 µg/mL (≈ 18.1 µM)
- MIC (S. aureus): 1 µg/mL (≈ 3.02 µM)
- MIC (M. smegimatis): 1 µg/mL (≈ 3.02 µM)
Compound: CCCCC1CC(c2ccc(O)cc2)(c2ccc(O)c(Cl)c2)C1 (centres unmarked) [Example 7, 1-(4-Hydroxyphenyl)-1-(4-hydroxy-3-chlorophenyl)-3-n-butyl-cyclobutane]

- MIC (C. diphtheriae): 1 µg/mL (≈ 2.85 µM)
- MIC (M. catarrhalis): 1 µg/mL (≈ 2.85 µM)
- MIC (H. influenzae): 3 µg/mL (≈ 8.54 µM)
- MIC (S. pneumoniae): 3 µg/mL (≈ 8.54 µM)
- MIC (E. faecalis): 2 µg/mL (≈ 5.69 µM)
- MIC (S. epidermidis): 1 µg/mL (≈ 2.85 µM)
- MIC (S. pyogenes): 13 µg/mL (≈ 37 µM)
- MIC (S. aureus): 1 µg/mL (≈ 2.85 µM)
- MIC (M. smegimatis): 1 µg/mL (≈ 2.85 µM)
- melting point: 103 to 105 °C
Compound: CCCC1CC(c2ccc(O)c(Cl)c2)(c2ccc(O)c(Cl)c2)C1 [Example 5, 1,1-Bis(4-hydroxy-3-chloro-phenyl)-3-n-propyl-cyclobutane]

- MIC (C. diphtheriae): 2 µg/mL (≈ 6.44 µM)
- MIC (M. catarrhalis): 2 µg/mL (≈ 6.44 µM)
- MIC (H. influenzae): 1 µg/mL (≈ 3.22 µM)
- MIC (S. pneumoniae): 6 µg/mL (≈ 19.3 µM)
- MIC (E. faecalis): 3 µg/mL (≈ 9.66 µM)
- MIC (S. epidermidis): 2 µg/mL (≈ 6.44 µM)
- MIC (S. pyogenes): 6 µg/mL (≈ 19.3 µM)
- MIC (S. aureus): 1 µg/mL (≈ 3.22 µM)
- MIC (M. smegimatis): 3 µg/mL (≈ 9.66 µM)
- melting point: 130 to 132 °C
Compound: CCCC1CC(c2ccc(O)c(C)c2)(c2ccc(O)c(C)c2)C1 [Example 1, 1,1-Bis(4-hydroxy-3-methylphenyl)-3-n-propyl-cyclobutane]

- MIC (S. aureus): 0.8 µg/mL (≈ 2.47 µM)
- melting point: 79 to 81 °C
Compound: C[C@H]1[C@@H](CC(C)(C)C)CC1(c1ccc(O)cc1)c1ccc(O)cc1 (relative stereo) [Example 14, Cis-1,1-di(4-hydroxyphenyl)-3-(2,2-dimethylpropyl)-2-methylcyclobutane]

- MIC (S. aureus): 0.8 µg/mL (≈ 2.27 µM)
- melting point: 138 to 141 °C
Compound: CCCCC1CC(c2cc(C)c(O)c(C)c2)(c2cc(C)c(O)c(C)c2)C1 [Example 30, 1,1-Di(3,5-dimethyl-4-hydroxyphenyl)-3-n-butylcyclobutane]

- MIC (S. aureus): 0.8 µg/mL (≈ 2.03 µM)
- melting point: 126 to 128 °C
Compound: C[C@H]1[C@H](CC(C)(C)C)CC1(c1ccc(O)c(Cl)c1)c1ccc(O)c(Cl)c1 (relative stereo) [Example 26, Trans-1,1-Di(3-chloro-4-hydroxyphenyl)-3-(2,2-dimethylpropyl)-2-methylcyclobutane]
